# Measurements published in patent publication US20010051630A1, “Use of hydroxylamine derivatives, and method and preparations for increasing the tolerance of field crops against weather stresses” (priority 1997, published 2001).
# Marks after values point to notes of the source that are not given here.
# Assays:
# [1] = tested on: maize of high chilling tolerance (HT) population; assay: CSVT, maize population of high chilling tolerance (HT); assay type: in vivo
# Method: (§1) In this experiment the tolerance of maize, soybean and pepper seeds treated with the active agent against cold was tested. This test imposed temperature and oxygen deficiency stresses on the seeds and was carried out according to Barla-Szabó and Dolinka CSVT (Complex Stressing Vigour Test). For a single test, two hundred seeds were soaked for 48 hours at 25° C. and another 48 hours at 5° C in 150 ml distilled water containing the active agent in 10 mg/l concentration. Following the 96 hours of soaking, the seeds were further germinated between rolled wet paper for 96 hours at 25° C. There were 25 seeds in each roll, the rolls were placed vertically into containers and covered with a plastic bag in order to reduce evaporation. During the whole procedure the seeds were kept in darkness.
# At the end of the experiment the number of normally developing and ungerminated seeds were recorded. The length of the normal seedlings was measured and the average length of the five longest seedlings was calculated. Seedlings longer than 0.33 times the average length of the five longest seedlings were considered to be of high vigour, and low vigour seedlings were shorter than this length.
# In the case of a further experiment with maize of low chilling tolerance (LT) and high chilling tolerance (HT) populations [Ref: P. Landi, E. Frascaroli, A. Lovato; EUPHYTICA 64 21-29 (1992)], the following positive effects were found (Table 3.).
# McCall soybeans = assay: CSVT with PVA-pearled McCall soybeans, relative length; assay type: in vivo, soybean; details: 2.5 mg in 1 ml 2.5% PVA per 100 seeds
# Method: as §1
# In a further CSVT experiment also using McCall soybeans, polyvinylalcohol (PVA) was applied for pearling the seeds. The 2.5 mg doses of the active agents were dissolved in 1 ml of 2.5% PVA solution, and this quantity was applied to 100 pieces of seeds. The improvement of the chilling tolerance is observed by the significant elongation of the germ and the roots.
# Seaway bean cultivar = assay: Drought tolerance of beans, part a (5 days hardening); assay type: in vivo; details: 7 days without water, one week regeneration
# Description: (§2) Based on the experiences of our preliminary experiments, the plants were hardened before the application of the active agent by withholding the water for a few days, until the first signs of withering appeared. Then the plants were watered and the active agent was either dissolved in the water, or sprayed to the plants directly. Afterwards, the plants were subjected to different periods of drought according to the given experiment, watered again, and after a week-long regeneration period, the survival ratio was determined.
# a) Seaway bean cultivar was hardened for 5 days by withholding the water. Afterwards the plantlets were watered for two days normally. During this time, a 10 mg/liter and 100 mg/liter concentration solution of the active agent was applied two times a day dissolved in water or by direct spraying. Then the water was withheld for 7 days, and after a week-long regeneration period, the survival ratio was determined.
# bean plants (cv. Seaway) = assay: Drought tolerance of beans, part b (7 days hardening); assay type: in vivo; details: 7 days without water, 10 mg/liter and 100 mg/liter solution named, table does not say which
# Description: as §2
# b) In this experiment, bean plants (cv. Seaway) were hardened for 7 days instead of the 5 days described in Part a. Then a 10 mg/liter and 100 mg/liter concentration solution of the active agent was applied two times a day for two days. Then 7 days without water followed, and after a week-long regeneration period, the results of the experiment were evaluated.
# bean cv. Seaway = assay: Frost tolerance of beans; assay type: in vivo; details: −2° C. for 8 hours
# Method: Seedlings of bean cv. Seaway were cultivated under normal conditions for the first two weeks, then they were treated with 10 mg/liter and 100 mg/liter concentration solutions of the examined active agents 2 and 1 days before the initiation of the frost tolerance experiments. In the experiment, the plants were kept at −2° C. for 8 hours, then grew under normal conditions for I week, and the survival ratio was determined. 4 trays were used for each experiment and 6 seeds were planted in each tray.
smiles,measurement,setting,value
"CC(C)(C)NCC(O)CONC(=O)c1cccc(C(F)(F)F)c1.Cl (stereo not drawn) [Compound 1, N-[2-hydroxy-3-(1,1-dimethylethyl-amino)propoxy]-3-trifluoromethyl-benzamide monohydrochloride]","Ratio of high vigour plants %, HT",[1],98* %
same,"Relative length (control = 100), germ",McCall soybeans,106
same,"Relative length (control = 100), root",McCall soybeans,128
same,"survival (%), Spraying (100 mg/l)",Seaway bean cultivar,71* %
same,"survival (%), Watering (10 mg/l)",Seaway bean cultivar,30* %
same,"survival (%), Watering (100 mg/l)",Seaway bean cultivar,41* %
same,Survival (%),bean plants (cv. Seaway),14* %
same,Survival (%),"bean cv. Seaway; spraying, 100 mg/l",40* %
same,Survival (%),"bean cv. Seaway; watering, 10 mg/l",25* %
